Laboratory results: US10039747B2, “Tetrahydrocyclopentapyrrole derivatives and a method for preparing the same” (Daewoong Pharmaceutical Co., Ltd., priority 2013, dated 2018)

What follows are molecules tested against T1, H+/K+-ATPase (Sus scrofa, UniProt P19156) (assay: Inhibition of proton pump (H+/K+-ATPase) activity in hog gastric vesicles). Settings: K+ specific H+/K+-ATPase activity, pH 7.4, 37° C. for 40 minutes, malachite green.
T1 construct: reaction buffer solution (60 mmol/l Tris-HCl buffer solution, pH 7.4) containing hog gastric vesicle; from tissue; host or cells: hog stomach (gastric vesicles, by centrifugation after Rabon et al. 1988)
Format: biochemical
In short: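 Hog gastric vesicles in 60 mmol/l Tris-HCl pH 7.4 with compound, started with ATP, 40 min at 37° C. Pi read by malachite green at 570 nm; K+-specific activity taken as difference between +K+ and −K+ activity. IC50 from % inhibition by 4-parameter logistic fit.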

T1 sequence (P19156 2-1034 limits assumed): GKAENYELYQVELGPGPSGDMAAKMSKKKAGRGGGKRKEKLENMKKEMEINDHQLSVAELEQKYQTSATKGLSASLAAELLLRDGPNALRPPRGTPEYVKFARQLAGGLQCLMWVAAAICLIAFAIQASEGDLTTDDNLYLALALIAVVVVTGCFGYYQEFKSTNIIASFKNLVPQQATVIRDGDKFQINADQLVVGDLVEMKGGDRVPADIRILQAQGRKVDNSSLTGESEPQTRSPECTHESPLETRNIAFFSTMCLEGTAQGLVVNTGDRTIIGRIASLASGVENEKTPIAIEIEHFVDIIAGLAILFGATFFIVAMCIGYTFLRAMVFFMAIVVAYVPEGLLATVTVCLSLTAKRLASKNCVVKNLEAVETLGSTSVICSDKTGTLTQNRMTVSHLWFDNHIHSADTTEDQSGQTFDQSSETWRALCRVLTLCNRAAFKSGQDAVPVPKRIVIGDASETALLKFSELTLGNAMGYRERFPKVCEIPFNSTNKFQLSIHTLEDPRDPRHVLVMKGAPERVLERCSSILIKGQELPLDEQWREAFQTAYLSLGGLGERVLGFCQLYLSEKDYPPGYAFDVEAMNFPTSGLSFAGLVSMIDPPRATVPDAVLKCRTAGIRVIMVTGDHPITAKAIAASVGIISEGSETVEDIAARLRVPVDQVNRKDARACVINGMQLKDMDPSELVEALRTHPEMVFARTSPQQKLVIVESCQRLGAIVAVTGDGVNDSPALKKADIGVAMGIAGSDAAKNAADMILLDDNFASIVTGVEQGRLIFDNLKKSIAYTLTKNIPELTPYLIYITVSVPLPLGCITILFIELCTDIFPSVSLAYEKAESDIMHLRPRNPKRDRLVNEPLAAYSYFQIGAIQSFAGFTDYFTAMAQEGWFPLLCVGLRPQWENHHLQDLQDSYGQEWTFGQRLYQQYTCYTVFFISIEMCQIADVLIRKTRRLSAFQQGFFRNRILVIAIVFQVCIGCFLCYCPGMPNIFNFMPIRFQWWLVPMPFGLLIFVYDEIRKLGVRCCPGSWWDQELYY
T1 sequence (P18434 whole entry partner): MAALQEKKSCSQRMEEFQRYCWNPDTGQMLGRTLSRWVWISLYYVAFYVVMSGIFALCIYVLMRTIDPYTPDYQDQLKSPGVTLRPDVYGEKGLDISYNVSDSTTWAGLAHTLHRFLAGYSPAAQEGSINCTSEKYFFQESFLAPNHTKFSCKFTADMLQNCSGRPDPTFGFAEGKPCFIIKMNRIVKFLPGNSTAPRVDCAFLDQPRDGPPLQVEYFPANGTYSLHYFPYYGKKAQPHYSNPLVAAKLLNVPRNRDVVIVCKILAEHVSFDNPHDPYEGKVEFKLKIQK

Compared with CNC1CCc2c1cn(S(=O)(=O)c1cncc(Cl)c1)c2-c1ccccc1F (centres unmarked) [Example 95, 2-((5-chloropyridin-3-yl)sulfonyl)-1-(2-fluorophenyl)-N-methyl-2,4,5,6-tetrahydrocyclopenta[c]pyrrol-4-amine], CNC1CCc2c1cn(S(=O)(=O)c1cccnc1)c2-c1ccc(Cl)cc1F (centres unmarked) [Example 91, 1-(4-chloro-2-fluorophenyl)-N-methyl-2-(pyridin-3-ylsulfonyl)-2,4,5,6-tetrahydrocyclopenta[c]pyrrol-4-amine] is 2.5-fold lower in IC50: 1720 nM for the first, 690 nM for the second. The second is the more potent here.

CNC1CCc2c1cn(S(=O)(=O)c1cccc(Cl)c1)c2-c1cc(Cl)c(C)cc1F (centres unmarked) [Example 26, 1-(5-chloro-2-fluoro-4-methylphenyl)-2-((3-chlorophenyl)sulfonyl)-N-methyl-2,4,5,6-tetrahydrocyclopenta[c]pyrrol-4-amine] and CNC1CCc2c1cn(S(=O)(=O)c1cccc(Cl)c1)c2-c1cc(Cl)ccc1F (centres unmarked) [Example 22, 1-(5-chloro-2-fluorophenyl)-2-((3-chlorophenyl)sulfonyl)-N-methyl-2,4,5,6-tetrahydrocyclopenta[c]pyrrol-4-amine] are within 1.5-fold of each other in IC50: 620 nM for the first, 450 nM for the second.

CNC1CCc2c1cn(S(=O)(=O)c1cccc(Cl)c1)c2-c1ccsc1 (centres unmarked) [Example 33, 2-((3-chlorophenyl)sulfonyl)-N-methyl-1-(thiophen-3-yl)-2,4,5,6-tetrahydrocyclopenta[c]pyrrol-4-amine] and CNC1CCc2c1cn(S(=O)(=O)c1cccc(Cl)c1)c2-c1ccc(O)cc1 (centres unmarked) [Example 12, 4-(2-((3-chlorophenyl)sulfonyl)-4-(methylamino)-2,4,5,6-tetrahydrocyclopenta[c]pyrrol-1-yl)phenol] are within 1.5-fold of each other in IC50: 320 nM for the first, 470 nM for the second.

First: CNC1CCc2c1cn(S(=O)(=O)c1ccccc1Cl)c2-c1ccc(C)cc1F (centres unmarked) [Example 48, 2-((2-chlorophenyl)sulfonyl)-1-(2-fluoro-4-methylphenyl)-N-methyl-2,4,5,6-tetrahydrocyclopenta[c]pyrrol-4-amine]
Second: CNC1CCc2c1cn(S(=O)(=O)c1cc(Cl)ccc1Cl)c2-c1ccccc1F (centres unmarked) [Example 70, 2-((2,5-dichlorophenyl)sulfonyl)-1-(2-fluorophenyl)-N-methyl-2,4,5,6-tetrahydrocyclopenta[c]pyrrol-4-amine]
The IC50 of the first is 2.3-fold higher: 1000 nM for the first, 430 nM for the second.

Compared with CNC1CCc2c1cn(S(=O)(=O)c1cnc3onc(C)c3c1)c2-c1ccccc1F (centres unmarked) [Example 97, 1-(2-fluorophenyl)-N-methyl-2-((3-methylisoxazolo[5,4-b]pyridin-5-yl)sulfonyl-)2,4,5,6-tetrahydrocyclopenta[c]pyrrol-4-amine], CNC1CCc2c1cn(S(=O)(=O)c1ccc(F)cc1F)c2-c1ccccc1F (centres unmarked) [Example 65, 2-((2,4-difluorophenyl)sulfonyl)-1-(2-fluorophenyl)-N-methyl-2,4,5,6-tetrahydrocyclopenta[c]pyrrol-4-amine] is 3-fold lower in IC50: 2820 nM for the first, 940 nM for the second. The second is the more potent here.

CNC1CCc2c1cn(S(=O)(=O)c1cccc(Cl)c1)c2-c1cscc1C (centres unmarked) [Example 34, 2-((3-chlorophenyl)sulfonyl)-N-methyl-1-(4-methylthiophen-3-yl)-2,4,5,6-tetrahydrocyclopenta[c]pyrrol-4-amine] and CNC1CCc2c1cn(S(=O)(=O)c1cccc(Cl)c1)c2-c1cccc(C)c1 (centres unmarked) [Example 8, 2-((3-chlorophenyl)sulfonyl)-N-methyl-1-(m-tolyl)-2,4,5,6-tetrahydrocyclopenta[c]pyrrol-4-amine] are within 1.5-fold of each other in IC50: 690 nM for the first, 750 nM for the second.

CNC1CCc2c1cn(S(=O)(=O)c1cc(Cl)c(Cl)cc1Cl)c2-c1cc(Cl)ccc1Cl (centres unmarked) [Example 83, 1-(2,5-dichlorophenyl)-N-methyl-2-((2,4,5-trichlorophenyl)sulfonyl)-2,4,5,6-tetrahydrocyclopenta[c]pyrrol-4-amine] and CNC1CCc2c1cn(S(=O)(=O)c1cccc(C)c1)c2-c1cc(Cl)ccc1Cl (centres unmarked) [Example 53, 1-(2,5-dichlorophenyl)-N-methyl-2-(m-tolylsulfonyl)-2,4,5,6-tetrahydrocyclopenta[c]pyrrol-4-amine] are within 1.5-fold of each other in IC50: 980 nM for the first, 770 nM for the second.

First: CNC1CCCc2c1cn(S(=O)(=O)c1cccc(Cl)c1)c2-c1ccc(-c2ccccc2)cc1 (centres unmarked) [Example 127, 1-([1,1′-biphenyl]-4-yl)-2-((3-chlorophenyl)sulfonyl)-N-methyl-4,5,6,7-tetrahydro-2H-isoindole-4-amine]
Second: CNC1CCc2c1cn(S(=O)(=O)c1ccc(-c3ccccc3)cc1)c2-c1ccccc1F (centres unmarked) [Example 62, 2-([1,1′-biphenyl]-4-ylsulfonyl)-1-(2-fluorophenyl)-N-methyl-2,4,5,6-tetrahydrocyclopenta[c]pyrrol-4-amine]
The IC50 of the first is 1.9-fold lower: 4530 nM for the first, 8750 nM for the second.

First: CCNC1CCCCc2c1cn(S(=O)(=O)c1cccc(Cl)c1)c2-c1ccccc1F (centres unmarked) [Example 147, 2-((3-chlorophenyl)sulfonyl)-N-ethyl-1-(2-fluorophenyl)-2,4,5,6,7,8-hexahydrocyclohepta[c]pyrrol-4-amine]
Second: CNC1CCCc2c1cn(S(=O)(=O)c1cccc(OC(F)(F)F)c1)c2-c1ccccc1F (centres unmarked) [Example 125, 1-(2-fluorophenyl)-N-methyl-2-((3-(trifluoromethoxy)phenyl)sulfonyl)-4,5,6,7-tetrahydro-2H-isoindole-4-amine]
The IC50 of the first is 1.6-fold higher: 7040 nM for the first, 4420 nM for the second. The second is the more potent here.

Going from CNC1CCc2c1cn(Cc1ccccc1)c2-c1ccccc1F (centres unmarked) [Example 109, 2-benzyl-1-(2-fluorophenyl)-N-methyl-2,4,5,6-tetrahydrocyclopenta[c]pyrrol-4-amine] to CNC1CCc2c1cn(Cc1cccc(C)c1)c2-c1ccccc1F (centres unmarked) [Example 110, 1-(2-fluorophenyl)-N-methyl-2-(3-methylbenzyl)-2,4,5,6-tetrahydrocyclopenta[c]pyrrol-4-amine], the IC50 falls from 6240 nM to 2890 nM (2.2-fold).

Compared with Cc1oc(=O)oc1COC(=O)N(C)C1CCc2c1cn(S(=O)(=O)c1cccc(F)c1)c2-c1ccc(F)cc1F (centres unmarked) [Example 116, (5-methyl-2-oxo-1,3-dioxol-4-yl)methyl (1-(2,4-difluorophenyl)-2-((3-fluorophenyl)sulfonyl)-2,4,5,6-tetrahydrocyclopenta[c]pyrrol-4-yl)(methyl)carbamate], CNC1CCCc2c1cn(S(=O)(=O)c1cccnc1)c2-c1ccc(F)cc1F (centres unmarked) [Example 135, 1-(2,4-difluorophenyl)-N-methyl-2-(pyridin-3-ylsulfonyl)-4,5,6,7-tetrahydro-2H-isoindole-4-amine] is 5.2-fold lower in IC50: 26200 nM for the first, 5000 nM for the second.

First: CNC1CCc2c1cn(S(=O)(=O)c1ccc(OC(F)(F)F)cc1Cl)c2-c1ccccc1F (centres unmarked) [Example 68, 2-((2-chloro-4-(trifluoromethoxy)phenyl)sulfonyl)-1-(2-fluorophenyl)-N-methyl-2,4,5,6-tetrahydrocyclopenta[c]pyrrol-4-amine]
Second: CNC1CCc2c1cn(S(=O)(=O)c1ccc(OC)nc1Cl)c2-c1ccccc1F (centres unmarked) [Example 98, 2-((2-chloro-6-methoxypyridin-3-yl)sulfonyl)-1-(2-fluorophenyl)-N-methyl-2,4,5,6-tetrahydrocyclopenta[c]pyrrol-4-amine]
The IC50 of the first is 4.3-fold lower: 840 nM for the first, 3620 nM for the second.

CNC1CCCc2c1cn(S(=O)(=O)c1cccnc1)c2-c1ccccc1C (centres unmarked) [Example 132, N-methyl-2-(pyridin-3-ylsulfonyl)-1-(o-tolyl)-4,5,6,7-tetrahydro-2H-isoindole-4-amine] and CN(C)C1CCCc2c1cn(S(=O)(=O)c1cccnc1)c2-c1ccccc1F (centres unmarked) [Example 144, 1-(2-fluorophenyl)-N,N-dimethyl-2-(pyridin-3-ylsulfonyl)-4,5,6,7-tetrahydro-2H-isoindole-4-amine] are the same in IC50: 8000 nM for the first, 8000 nM for the second.

Compared with CNC1CCc2c1cn(S(=O)(=O)c1ccccc1OC)c2-c1ccccc1F (centres unmarked) [Example 46, 1-(2-fluorophenyl)-2-((2-methoxyphenyl)sulfonyl)-N-methyl-2,4,5,6-tetrahydrocyclopenta[c]pyrrol-4-amine], CNC1CCc2c1cn(S(=O)(=O)c1cccs1)c2-c1ccccc1F (centres unmarked) [Example 87, 1-(2-fluorophenyl)-N-methyl-2-(thiophen-2-ylsulfonyl)-2,4,5,6-tetrahydrocyclopenta[c]pyrrol-4-amine] is 2.3-fold lower in IC50: 3270 nM for the first, 1440 nM for the second. The second is the more potent here.

Compared with CNC1CCc2c1cn(S(=O)(=O)c1cccc(Cl)c1)c2-c1ccc(OC(F)(F)F)cc1 (centres unmarked) [Example 17, 2-((3-chlorophenyl)sulfonyl)-N-methyl-1-(4-(trifluoromethoxy)phenyl)-2,4,5,6-tetrahydrocyclopenta[c]pyrrol-4-amine], CNC1CCc2c1cn(S(=O)(=O)c1cccc(Cl)c1)c2-c1ccc(F)cc1 (centres unmarked) [Example 11, 2-((3-chlorophenyl)sulfonyl)-1-(4-fluorophenyl)-N-methyl-2,4,5,6-tetrahydrocyclopenta[c]pyrrol-4-amine] is 2.5-fold lower in IC50: 1390 nM for the first, 550 nM for the second.

Going from CNC1CCc2c1cn(S(=O)(=O)c1cccc(Cl)c1)c2-c1cccnc1 (centres unmarked) [Example 37, 2-((3-chlorophenyl)sulfonyl)-N-methyl-1-(pyridin-3-yl)-2,4,5,6-tetrahydrocyclopenta[c]pyrrol-4-amine] to CNC1CCc2c1cn(S(=O)(=O)c1cccc(Cl)c1)c2-c1cccc(Cl)n1 (centres unmarked) [Example 36, 2-((3-chlorophenyl)sulfonyl)-1-(6-chloropyridin-2-yl)-N-methyl-2,4,5,6-tetrahydrocyclopenta[c]pyrrol-4-amine], the IC50 rises from 1490 nM to 2540 nM (1.7-fold).

Going from CNC1CCc2c1cn(S(=O)(=O)c1cccc(OC(F)F)c1)c2-c1ccccc1F (centres unmarked) [Example 57, 2-((3-(difluoromethoxy)phenyl)sulfonyl)-1-(2-fluorophenyl)-N-methyl-2,4,5,6-tetrahydrocyclopenta[c]pyrrol-4-amine] to CNC1CC(C)(C)c2c1cn(S(=O)(=O)c1cccnc1)c2-c1ccccc1F (centres unmarked) [Example 105, 1-(2-fluorophenyl)-N,6,6-trimethyl-2-(pyridin-3-ylsulfonyl)-2,4,5,6-tetrahydrocyclopenta[c]pyrrol-4-amine], the IC50 rises from 420 nM to 8500 nM (20-fold).

Work on CNC1CCc2c1cn(C(=O)c1cccc(Cl)c1)c2-c1ccc(F)cc1F (centres unmarked) [Example 114, (3-chlorophenyl)(1-(2,4-difluorophenyl)-4-(methylamino)-5,6-dihydrocyclopenta[c]pyrrol-2(4H)-yl)methanone] yielded an IC50 of 30100 nM.
